# From PMC9230797, “Integration of a Physiologically Based Pharmacokinetic and Pharmacodynamic Model for Tegoprazan and Its Metabolite: Application for Predicting Food Effect and Intragastric pH Alterations” (Pharmaceutics, 2022)
# Values joined by “and” are separate entries in the source; they are usually repeats but may differ in a detail not shown here. Equal entries are not always repeated.
# Columns and labels:
# [1] = ADAM model prediction of regional absorption, gut metabolism, surface solubility and residence time; set-up: species or system human; conditions: at 30 min after a high-fat meal
# Description: The absorption of tegoprazan was applied to the advanced dissolution, absorption, and metabolism (ADAM) model, and the diffusion layer model (DLM) built into SimCYP® was applied to the considered formulation and pH-dependent solubility of tegoprazan. The permeability of tegoprazan was determined by a Caco-2 permeability assay and optimized by parameter estimation. Caco-2 permeability was optimized such that the predicted concentration–time profiles were fitted to clinical study data. The metabolite was generated by the metabolism of the parent drug; therefore, absorption was not considered.
# Postprandial PK profiles were predicted using an established model. Concentration–time profiles were obtained following a single oral dose (50 mg) of tegoprazan in the fasting state or 30 min after a high-fat diet. The predicted AUClast, Cmax, and Tmax values were compared with those of a previous clinical study.
# CYP2C9 = target: T1, CYP2C9 (Homo sapiens, UniProt P11712); test: Intrinsic clearance using recombinant CYPs: CYP2C9; type: in vitro ADME
# T1 construct: purchased Corning Life Sciences (Woburn, MA, USA)
# Description: (§1) The elimination profiles of tegoprazan and M1 were assessed using rCYPs. All the assay procedures were performed according to the manufacturer’s instructions. Master mix (1.399 mL), containing the NADPH-generating system, 3.3 mM of glucose 6-phosphate, PBS buffer, deionized water, and each rCYP (25 pmol/μL of CYP2C8, 2C19, and 2E1 and 50 pmol/μL of CYP3A4, 2C9, and 2D6), was added to a microtube and pre-incubated at 37 °C for 5 min. Next, 1 μM tegoprazan and M1 were added and incubated at 37 °C for 0, 5, 10, 20, 30, 45, and 60 min. A total of 100 μL of the sample, incubated for predefined duration, was transferred to a fresh e-tube. Next, 200 μL of acetonitrile containing tegoprazan-d6 (0.5 μM) was added, vortexed for 5 min, and centrifuged at 16,200× g and 4 °C for 10 min. The concentrations of the remaining tegoprazan and M1 were determined by LC–MS/MS. All experiments were performed in duplicate. CLint,rCYP levels were assessed using the results of the disappearance test. […] The CLint resulting from rCYPs was calculated using Equation (3):(3) CLint,rCYP(μL/min/pmol CYP)=0.693/t1/2×1400/concentration of CYP
# (§2) Caco-2 and rCYP samples were quantified using LC-MS/MS (UPLC® I-class coupled with TQ-MS (Waters, Milford, MA, USA). The mobile phase comprised (a) 0.1% formic acid and (b) acetonitrile containing 0.1% formic acid. Gradient elution at a flow rate of 0.3 mL/min was applied. Tegoprazan, M1, and the internal standard (tegoprazan-d6) were optimized in electrospray ionization positive mode. Acetonitrile with 0.1 μM of tegoprazan-d6 was added to the collected Caco-2 or rCYP samples. Then, processed samples were centrifuged at 13,000× g for 20 min. After centrifugation, 100 μL of supernatant was transferred to an LC-MS vial and analyzed using LC-MS/MS. […] The stability of tegoprazan was evaluated, and it satisfied the acceptance criteria (coefficient of variances was within 15%) under variable conditions including reinjection, processed sample stability (PSS), and short-term stability for the stock and sample.
# [2] = set-up: method as in PMID 33131095; conditions: 100 mg repeatedly; 10 healthy Chinese subjects; cited from earlier work
# CYP3A4 = target: T2, CYP3A4 (Homo sapiens, UniProt P08684); test: Intrinsic clearance using recombinant CYPs: CYP3A4; type: in vitro ADME
# T2 construct: purchased Corning Life Sciences (Woburn, MA, USA)
# Description: as §1, §2
# T2 sequence (P08684 whole entry): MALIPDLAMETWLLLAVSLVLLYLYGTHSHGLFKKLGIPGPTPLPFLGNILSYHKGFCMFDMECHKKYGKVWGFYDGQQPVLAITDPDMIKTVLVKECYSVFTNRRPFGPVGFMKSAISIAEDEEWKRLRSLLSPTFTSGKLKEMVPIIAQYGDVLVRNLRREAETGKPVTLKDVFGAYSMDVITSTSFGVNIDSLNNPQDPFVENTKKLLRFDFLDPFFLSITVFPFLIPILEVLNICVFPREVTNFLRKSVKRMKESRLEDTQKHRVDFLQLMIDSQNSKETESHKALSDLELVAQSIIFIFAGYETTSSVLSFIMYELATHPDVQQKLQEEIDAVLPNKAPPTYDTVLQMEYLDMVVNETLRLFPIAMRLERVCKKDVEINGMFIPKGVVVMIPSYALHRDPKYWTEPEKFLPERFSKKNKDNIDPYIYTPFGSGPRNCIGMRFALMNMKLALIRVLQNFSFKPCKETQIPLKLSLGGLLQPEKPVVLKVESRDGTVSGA
# T1 sequence (P11712 whole entry): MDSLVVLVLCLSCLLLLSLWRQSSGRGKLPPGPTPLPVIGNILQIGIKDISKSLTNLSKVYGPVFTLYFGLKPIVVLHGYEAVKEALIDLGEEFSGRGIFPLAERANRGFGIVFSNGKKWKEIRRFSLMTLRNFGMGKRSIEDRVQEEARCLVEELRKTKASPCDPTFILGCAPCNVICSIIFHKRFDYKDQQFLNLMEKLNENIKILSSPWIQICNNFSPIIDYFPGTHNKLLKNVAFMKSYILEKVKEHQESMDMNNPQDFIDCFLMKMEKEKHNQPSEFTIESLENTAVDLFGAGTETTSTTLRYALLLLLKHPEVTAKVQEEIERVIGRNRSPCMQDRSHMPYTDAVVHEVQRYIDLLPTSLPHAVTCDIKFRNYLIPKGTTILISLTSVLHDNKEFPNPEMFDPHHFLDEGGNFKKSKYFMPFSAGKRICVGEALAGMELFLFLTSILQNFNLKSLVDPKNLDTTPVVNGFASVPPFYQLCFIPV
compound,measurement,setting,value
Cc1nc2cc(C(=O)N(C)C)cc(O[C@H]3CCOc4cc(F)cc(F)c43)c2[nH]1 [tegoprazan],"increase of predicted absorbed fraction in the duodenum, fed vs fasting",[1],approximately 72.7%
same,"increase of predicted mean residence time in the stomach, fed vs fasting",[1],approximately 170.4%
same,"increase of predicted surface solubility in the duodenum, fed vs fasted",[1],40.3%
same,"increase of predicted surface solubility in the stomach, fed vs fasted",[1],14.8%
same,"CLint, CYP2C9","CYP2C9; 1 μM, experimental data",0.14 µL/min/pmol and 0.140 µL/min/pmol
same,half-life at 1 μM,"CYP2C9; human, recombinant CYP2C9, rCYP2C9",2.27 h
same,Slope (disappearance),"CYP2C9; rCYP2C9, 1 μM",-0.005
same,AUC and CL on Day 7 compared with Day 1,[2],did not show a significant difference
same,Vd/F on Day 7 compared with Day 1,[2],increased significantly
same,"CLint, CYP3A4","CYP3A4; 1 μM, experimental (initial model value)",0.86 µL/min/pmol and 0.855 µL/min/pmol
same,half-life at 1 μM,"CYP3A4; human, recombinant CYP3A4, rCYP3A4",0.378 h
same,Slope (disappearance),"CYP3A4; rCYP3A4, 1 μM",-0.031
